The text below walks through data of US10766869B2, “Triazoles for the treatment of demyelinating dieases” (Vertex Pharmaceuticals Incorporated, priority 2015, dated 2020).

Like-named read-outs stand apart in the source and are kept apart here. A value given as a limit tells only on which side of the number the result lay.

This experiment concerns primary rat mixed cortical cells. The experiment can be described thus: In vitro myelination assay (MBP positive myelin strands, fold myelin pixels above background). The format is cell-based. Particulars: Rattus norvegicus; for fold induction at 1 µM: 1.0 μM compound; for fold induction at 10 µM: 10.0 μM compound. The essentials: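 Mixed cortical culture, P1 rat, 87,500-95,000 cells/well; compound present from seeding, refreshed days 6 and 10; 14 d, 37 °C, 5% CO2. Day 14: PFA fix, anti-MBP + Hoechst. Read-out: fold MBP myelin pixels over untreated, tested at 1.0 and 10.0 μM.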

The mark [1] stands for this setting: read-out: Fold myelin pixels above background relative to baseline of no added compound.
The mark [2] stands for this setting: relative to baseline of no added compound, read-out: Fold myelin pixels above background.
Setting [3] is: relative to baseline of no added compound, read-out: Fold myelin pixels above background, 1.0 μM.
[4] abbreviates: relative to baseline of no added compound, read-out: Fold myelin pixels above background, 10.0 μM.

In the case of `Cc1cc(NCC2COCCN2C)cc(Nc2ncn(-c3cc(F)cc(F)c3)n2)c1` (stereo not drawn) [Compound 1062, N1-[1-(3,5-difluorophenyl)-1,2,4-triazol-3-yl]-5-methyl-N3-[(4-methylmorpholin-3-yl)methyl]benzene-1,3-diamine], under setting [1], the fold induction at 1 µM fell in the range of 10 to 100 and the fold induction at 10 µM is not above 1.
As to `Cc1cc(Nc2ncn(-c3cc(F)cc(F)c3)n2)nc(N2CCN(C(=O)OC(C)(C)C)CC2)c1` [Compound 533, tert-butyl 4-[6-[[1-(3,5-difluorophenyl)-1,2,4-triazol-3-yl]amino]-4-methyl-2-pyridyl]piperazine-1-carboxylate], under setting [2], the fold induction at 1 µM is 10 to 100 and the fold induction at 10 µM lay in the range of 1 to 10.
With `Cc1cc(NCC2CN(C(CO)CO)C2)cc(Nc2ncn(-c3cc(F)cc(F)c3)n2)c1` [Compound 946, 2-[3-[[3-[[1-(3,5-difluorophenyl)-1,2,4-triazol-3-yl]amino]-5-methyl-anilino]methyl]azetidin-1-yl]propane-1,3-diol], under setting [1], the fold induction at 1 µM is not above 1 and the fold induction at 10 µM was not above 1.
On to `Cc1cc(Nc2ncn(-c3cc(F)cc(F)c3)n2)c(F)c(N2CC3(C2)CN(C(C)C)C3)c1` [Compound 1072, 1-(3,5-difluorophenyl)-N-[2-fluoro-3-(2-isopropyl-2,6-diazaspiro[3.3]heptan-6-yl)-5-methyl-phenyl]-1,2,4-triazol-3-amine], for which, under setting [1], the fold induction at 1 µM lay within 1 to 10 and the fold induction at 10 µM was not above 1.
As for `CN(C)C1CCN(c2cc(F)cc(Nc3ncn(-c4cccc(F)c4)n3)c2)C1` (stereo not drawn) [Compound 109, N-[3-[3-(dimethylamino)pyrrolidin-1-yl]-5-fluoro-phenyl]-1-(3-fluorophenyl)-1,2,4-triazol-3-amine], the fold induction at 1 µM under setting [3] was in the range of 10 to 100. For the same molecule, the fold induction at 10 µM under setting [4] was not above 1.
Take `Cc1cc(Nc2ncn(-c3cc(F)cc(F)c3)n2)cc(N2CC(N3CC4CC3CO4)C2)c1` (stereo not drawn) [Compound 788, 1-(3,5-difluorophenyl)-N-[3-methyl-5-[3-(2-oxa-5-azabicyclo[2.2.1]heptan-5-yl)azetidin-1-yl]phenyl]-1,2,4-triazol-3-amine]: under setting [1], the fold induction at 1 µM is 10 to 100 and the fold induction at 10 µM was in the range of 1 to 10.
On to `Fc1cc(Nc2ncn(-c3cccc(C(F)(F)F)c3)n2)cc(N2CCCC2)c1` [Compound 241, N-(3-fluoro-5-pyrrolidin-1-yl-phenyl)-1-[3-(trifluoromethyl)phenyl]-1,2,4-triazol-3-amine], for which the fold induction at 1 µM under setting [3] is not above 1. Also, under setting [4], the fold induction at 10 µM is not above 1.
In the case of `Cc1cc(Nc2ncn(-c3cc(F)cc(F)c3)n2)cc(C2COC2)c1` [Compound 131, 1-(3,5-difluorophenyl)-N-[3-methyl-5-(oxetan-3-yl)phenyl]-1,2,4-triazol-3-amine], the fold induction at 1 µM under setting [3] lay within 10 to 100. For the same molecule, the fold induction at 10 µM under setting [4] was in the range of 1000 to 10000.
For the molecule `CCc1cc(Nc2ncn(-c3ccnc(F)c3)n2)cc(N2CCN(C3COC3)CC2)c1` [Compound 16, N-[3-ethyl-5-[4-(oxetan-3-yl)piperazin-1-yl]phenyl]-1-(2-fluoro-4-pyridyl)-1,2,4-triazol-3-amine], the fold induction at 1 µM under setting [3] lay in the range of 100 to 1000. Further, the fold induction at 10 µM under setting [4] lay within 10 to 100.
Consider `COc1cc(F)cc(-n2cnc(Nc3cc(C)cc(N4CCN(C)CC4)c3)n2)c1` [Compound 395, 1-(3-fluoro-5-methoxy-phenyl)-N-[3-methyl-5-(4-methylpiperazin-1-yl)phenyl]-1,2,4-triazol-3-amine], for which, under setting [2], the fold induction at 1 µM was in the range of 10 to 100 and the fold induction at 10 µM is not above 1.
Take `Cc1cc(Nc2ncn(-c3cncc(F)c3)n2)cc(N2CCCC2)c1` [Compound 320, 1-(5-fluoro-3-pyridyl)-N-(3-methyl-5-pyrrolidin-1-yl-phenyl)-1,2,4-triazol-3-amine]: the fold induction at 1 µM under setting [3] was 10 to 100. The fold induction at 10 µM under setting [4] lay in the range of 100 to 1000.
On the same counts, the results for `Cc1cc(Nc2ncn(-c3cc(F)cc(F)c3)n2)cc(C2=CCN(C3COC3)CC2)c1` [Compound 61, 1-(3,5-difluorophenyl)-N-[3-methyl-5-[1-(oxetan-3-yl)-3,6-dihydro-2H-pyridin-4-yl]phenyl]-1,2,4-triazol-3-amine] are 1000 to 10000 and not above 1.
Turning to `Cc1cc(Nc2ncn(-c3cc(F)cc(F)c3)n2)cc(N2CCN(C3CCCOC3)CC2)c1` (stereo not drawn) [Compound 199, 1-(3,5-difluorophenyl)-N-[3-methyl-5-(4-tetrahydropyran-3-ylpiperazin-1-yl)phenyl]-1,2,4-triazol-3-amine], the fold induction at 1 µM under setting [3] was 100 to 1000. Further, the fold induction at 10 µM under setting [4] lay within 100 to 1000.
Take `COCC1CCN(c2cc(C)cc(Nc3ncn(-c4ccncc4)n3)c2)CC1` [Compound 385, N-[3-[4-(methoxymethyl)-1-piperidyl]-5-methyl-phenyl]-1-(4-pyridyl)-1,2,4-triazol-3-amine]: under setting [3], the fold induction at 1 µM fell in the range of 100 to 1000. Moreover, the fold induction at 10 µM under setting [4] lay within 100 to 1000.
In the case of `Cc1cc(Nc2ncn(-c3cc(F)cc(F)c3)n2)cc(C2(C)CN(C3COC3)CCO2)c1` (stereo not drawn) [Compound 708, 1-(3,5-difluorophenyl)-N-[3-methyl-5-[2-methyl-4-(oxetan-3-yl)morpholin-2-yl]phenyl]-1,2,4-triazol-3-amine], under setting [2], the fold induction at 1 µM is 1 to 10 and the fold induction at 10 µM is not above 1.
Consider `Cc1cc(Nc2ncn(-c3cc(F)cc(F)c3)n2)cc(NC2CCN(CCN3CCOCC3)C2)c1` (stereo not drawn) [Compound 880, N3-[1-(3,5-difluorophenyl)-1,2,4-triazol-3-yl]-5-methyl-N1-[1-(2-morpholinoethyl)pyrrolidin-3-yl]benzene-1,3-diamine], for which, under setting [1], the fold induction at 1 µM lay within 1 to 10 and the fold induction at 10 µM was not above 1.
As to `Fc1cc(F)cc(-n2cnc(Nc3cc(C(F)F)cc(N4CCCC5(COC5)C4)n3)n2)c1` [Compound 777, 4-(difluoromethyl)-N-[1-(3,5-difluorophenyl)-1,2,4-triazol-3-yl]-6-(2-oxa-8-azaspiro[3.5]nonan-8-yl)pyridin-2-amine], under setting [2], the fold induction at 1 µM was 1 to 10 and the fold induction at 10 µM was in the range of 10 to 100.
With `Cc1cc(Nc2ncn(-c3cc(F)cc(F)c3)n2)c(F)c(N2CC(N3CCOCC3)C2)c1` [Compound 790, 1-(3,5-difluorophenyl)-N-[2-fluoro-5-methyl-3-(3-morpholinoazetidin-1-yl)phenyl]-1,2,4-triazol-3-amine], under setting [1], the fold induction at 1 µM was in the range of 10 to 100 and the fold induction at 10 µM was in the range of 10 to 100.
Regarding `Fc1ccc(-n2cnc(Nc3cc(N4CCOCC4)nc(N4CCOCC4)c3)n2)cc1F` [Compound 393, N-[1-(3,4-difluorophenyl)-1,2,4-triazol-3-yl]-2,6-dimorpholino-pyridin-4-amine], under setting [2], the fold induction at 1 µM fell in the range of 100 to 1000 and the fold induction at 10 µM is not above 1.
Taken in the same sequence, the figures for `COC(=O)N1CCN(c2cc(C)cc(Nc3ncn(-c4cc(F)cc(F)c4)n3)c2)CC1` [Compound 422, methyl 4-[3-[[1-(3,5-difluorophenyl)-1,2,4-triazol-3-yl]amino]-5-methyl-phenyl]piperazine-1-carboxylate] were not above 1 and 100 to 1000.
Taken in the same sequence, the figures for `COc1ccc(-n2cnc(Nc3cc(C)cc(N4CCN(C5COC5)CC4)c3)n2)cc1` [Compound 710, 1-(4-methoxyphenyl)-N-[3-methyl-5-[4-(oxetan-3-yl)piperazin-1-yl]phenyl]-1,2,4-triazol-3-amine] were 10 to 100 and not above 1.
Regarding `Cc1cc(Nc2ncn(-c3ccccn3)n2)cc(C2CCCN(C3COC3)C2)c1` (stereo not drawn) [Compound 207, N-[3-methyl-5-[1-(oxetan-3-yl)-3-piperidyl]phenyl]-1-(2-pyridyl)-1,2,4-triazol-3-amine], the fold induction at 1 µM under setting [3] fell in the range of 10 to 100. For the same molecule, the fold induction at 10 µM under setting [4] was not above 1.
With `Fc1cc(F)cc(-n2cnc(Nc3cc(N4CCN(C5COC5)CC4)cc(N4CCN(C5COC5)CC4)c3)n2)c1` [Compound 574, N-[3,5-bis[4-(oxetan-3-yl)piperazin-1-yl]phenyl]-1-(3,5-difluorophenyl)-1,2,4-triazol-3-amine], under setting [2], the fold induction at 1 µM was in the range of 100 to 1000 and the fold induction at 10 µM fell in the range of 10 to 100.
Regarding `Cc1cc(Nc2ncn(-c3cc(F)cc(F)c3)n2)cc(N2CC(O)(C(C)C)C2)c1` [Compound 518, 1-[3-[[1-(3,5-difluorophenyl)-1,2,4-triazol-3-yl]amino]-5-methyl-phenyl]-3-isopropyl-azetidin-3-ol], under setting [2], the fold induction at 1 µM fell in the range of 10 to 100 and the fold induction at 10 µM lay in the range of 10 to 100.
Consider `Cc1cc(Nc2ncn(-c3cc(F)cc(F)c3)n2)cc(N2CCC(N(C)C)CC2)c1` [Compound 948, 1-[3-[[1-(3,5-difluorophenyl)-1,2,4-triazol-3-yl]amino]-5-methyl-phenyl]-N,N-dimethyl-piperidin-4-amine], for which, under setting [1], the fold induction at 1 µM lay in the range of 10 to 100 and the fold induction at 10 µM is not above 1.
As for `Cc1cc(Nc2ncn(-c3cc(F)cc(F)c3)n2)nc(OC2CCCOC2)c1` (stereo not drawn) [Compound 999, N-[1-(3,5-difluorophenyl)-1,2,4-triazol-3-yl]-4-methyl-6-tetrahydropyran-3-yloxy-pyridin-2-amine], under setting [1], the fold induction at 1 µM is 1 to 10 and the fold induction at 10 µM was not above 1.
`Cc1cc(Nc2ncn(-c3ccccc3)n2)cc(C2CCN(C3CC3)CC2)c1` [Compound 120, N-[3-(1-cyclopropyl-4-piperidyl)-5-methyl-phenyl]-1-phenyl-1,2,4-triazol-3-amine]: the fold induction at 1 µM under setting [3] was 1000 to 10000. In addition, the fold induction at 10 µM under setting [4] is not above 1.
